In patent US11110195B2, “Esculentin 1a derivatives and uses thereof” (University of Houston System, priority 2013, dated 2021):
Residues, ends and D or L forms follow the SMILES beside them.

Key:
[1] = in vitro; conditions: human, human telomerase immortalized corneal epithelial cells
Experimental: (§1) Human corneal epithelial cells were incubated with varying concentrations of Esc-1a(1-21)NH2 for 24 hrs then cytotoxicity determined by MTT assay. Data are the mean of 3 independent experiments.
(§2) To determine the toxicity of Esc-1a(1-21)NH2 to human telomerase immortalized corneal epithelial cells, the following experiment was performed. The MTT (3-(4,5-Dimethylthiazole-2-yl)-2,5-diphenyltetrazolium bromide) assay measures the activity of enzymes that reduce the tetrazolium blue dye to a formazan salt. Mitochondrial reductase enzymes will reduce MTT to formazan, which can be visualized by colorimetric reaction the absorbance of which can be quantified.
(§3) MTT assay was performed on human telomerase immortalized corneal epithelial cells treated with different concentrations of the peptide for 24 hrs. The test was performed in triplicate or quadruplicate wells with concentrations of the peptide of up to 100 μM using the following protocol. On day 1, plated the telomerase immortalized epithelial cells at 10,000 cells/well in a 96 well plate. Incubated the plate at 37° C. for […] to allow the cells to attach to the plate and spread. On day 2, incubated the cells in serum free media for at least 6 hrs prior to peptide treatment. On day 3, stimulated the cells with 100, 50, 25, 10, 5, 1, 0.5 and 0.1 μM Esc-1a(1-21)NH2 in quadruplicate for 24 hrs. On day 4, added 50 μl of 0.02% Benzalkonium chloride into 4 wells as a positive control for 15 minutes. Added 50 μl of serum free media into all the other wells (total volume 100 μl). Added 10 μl of MTT stock solution into each of the well. Incubated at 37° C. for 3 hours. At the end of 3 hours purple crystals were visible under the microscope. Added 100 μl of stop solution into each well using a multichannel pipette. Pipetted up and down to dissolve all the crystals. Gently popped the bubbles using a 10 μl tip. Read plate using plate reader at 590 nm abs and 635 nm reference. Subtracted reference OD value (635) from 590 OD value and plotted graph.

[2] = system: human telomerase immortalized corneal epithelial cells; assay: in vitro; conditions: 24 hrs
Experimental: as §1, §2, §3

[3] = MTT viability assay, A549 cells; conditions: human
Experimental: Cell viability is expressed as percentage with respect to the control (cells not treated with the peptides). Data points represent the mean of triplicate samples ±SEM. […] The levels of statistical significance between the two peptides are indicated as follows: **p<0.01, ***p<0.001.
Cells were plated in wells of a microtiter plate, at 4×10^4 cells/well in DMEM supplemented with 2 mM glutamine and 2% FBS (for A549 cells) or DMEM containing 2 mM glutamine, non-essential amino acids (NEAA), sodium pyruvate and 2% FBS (for Raw 264.7 macrophages). After overnight incubation at 37° C. in a 5% CO2 atmosphere, the medium was replaced with 100 μl fresh serum-free medium supplemented with the peptides at different concentrations. After 24 h of peptide treatment, cell viability was determined by a MTT assay.

CC[C@H](C)[C@H](NC(=O)CN)C(=O)N[C@@H](Cc1ccccc1)C(=O)N[C@@H](CO)C(=O)N[C@@H](CCCCN)C(=O)N[C@@H](CC(C)C)C(=O)N[C@@H](C)C(=O)NCC(=O)N[C@@H](CCCCN)C(=O)N[C@@H](CCCCN)C(=O)N[C@H](C(=O)N[C@@H](CCCCN)C(=O)N[C@@H](CC(N)=O)C(=O)N[C@@H](CC(C)C)C(=O)N[C@@H](CC(C)C)C(=O)N[C@H](C(=O)N[C@@H](CO)C(=O)NCC(=O)N[C@@H](CC(C)C)C(=O)N[C@@H](CCCCN)C(=O)NCC(N)=O)[C@@H](C)CC)[C@@H](C)CC [Esc-1a(1-21)NH2] (H-GIFSKLAGKKIKNLLISGLKG-NH2; N-terminus assumed)
viability at 24 h, 50 µM [1]: 75.7% | viability at 24 h, 100 µM [1]: 17.4% | concentrations significantly cytotoxic ([2]; MTT (FIG. 4)): above 50 μM | toxicity to the cells ([2]; concentration below 50 μM): not toxic | CC50 at 24 h [3]: 150 µM
